Measured values published in patent US8349862B2, “Pyridine derivatives for the treatment of metabolic disorders related to insulin resistance or hyperglycemia” (Piramal Healthcare Limited, priority 2006, dated 2013).
Where “and” joins values, the source holds several entries; their conditions need not be identical. Equal values may be shown once.

Key:
[1] = system: insulin resistant adipocytes (differentiated 3T3 L1 fibroblasts); assay: In vitro model exhibiting insulin resistance: 14C-2-deoxyglucose uptake in dexamethasone-treated adipocytes; type: cell-based; conditions: test compound 10 μM/mL, Rosiglitazone 0.1 μM; for Fold Vehicle (fold activity over vehicle, glucose uptake): vehicle = 1.0, cut off for activity 1.50 fold
Experimental: The assay was designed as in reference, British Journal of Pharmacology, 130, 351-58, 2000, the disclosure of which is incorporated by reference for the teaching of the assay. The solution of test compound (10 μM/mL) was prepared in DMSO. […] Differentiation into adipocytes was induced by known methods as described below. (J. Biol. […] 3T3 L1 fibroblasts were seeded in 24- or 6-well plates at a density of 0.5-2×10^4 cells/well and were allowed to reach maximal confluency. The confluent fibroblasts were exposed to culture medium for 2 days. […] The mature adipocytes were exposed to dexamethasone, 100 nM added in ethanol, in culture medium and incubated for 2 days. […] The test compound was also present during this period. After 3-4 hours, the medium was aspirated and replaced with Kreb's Ringer phosphate (KRP) buffer at pH 7.4 and with human/porcine insulin, 200 nM. The cells were incubated for 30 minutes at 37° C. […] After exactly 5 minutes, the plates were transferred to ice trays and medium was rapidly aspirated. The cell layer was washed twice with ice-cold phosphate buffered saline, (PBS), pH 7.4. […] Non-specific glucose uptake was assayed in wells exposed to cytochalasin B, inhibitor of glucose transport. […] Statistical analysis was performed using unpaired t-test.

[2] = molecular target: T1, Human PPARγ (Homo sapiens, UniProt P37231); assay: Human PPARγ transactivation assay (luciferase reporter, HEK293 cells); type: cell-based
T1 construct: Human full length PPARγ cDNA was cloned into pSG5 expression vector; expressed in transfected cells; host or cells: HEK293
T1 sequence (P37231 1-505): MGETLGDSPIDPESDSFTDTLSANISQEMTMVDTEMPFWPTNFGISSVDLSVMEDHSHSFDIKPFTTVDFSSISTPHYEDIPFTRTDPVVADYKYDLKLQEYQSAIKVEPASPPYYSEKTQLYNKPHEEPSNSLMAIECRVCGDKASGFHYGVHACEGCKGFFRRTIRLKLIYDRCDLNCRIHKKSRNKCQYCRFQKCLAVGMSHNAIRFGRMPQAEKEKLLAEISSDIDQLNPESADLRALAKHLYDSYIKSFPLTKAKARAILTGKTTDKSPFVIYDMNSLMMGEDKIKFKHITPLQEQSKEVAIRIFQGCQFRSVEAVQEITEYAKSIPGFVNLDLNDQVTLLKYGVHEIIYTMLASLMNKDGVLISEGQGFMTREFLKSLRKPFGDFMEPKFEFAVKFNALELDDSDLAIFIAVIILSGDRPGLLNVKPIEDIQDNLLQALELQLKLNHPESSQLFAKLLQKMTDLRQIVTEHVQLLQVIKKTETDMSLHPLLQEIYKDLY
Experimental: The assay was designed as in the reference, Biochem. Biophys. Res. Comm. 175:865-871, 1991, the disclosure of which is incorporated by reference for the teaching of the assay.
Human PPARγ activity was evaluated by transactivation using a luciferase reporter gene. […] Human full length PPARγ cDNA was cloned into pSG5 expression vector (Stratagene, Lo Jolla, Calif.).
HEK293 cells were seeded in 24 well plates and grown in DMEM supplemented with 10% (v/v) FCS. After 24 hours, they were transfected with 100 ng of hPPARγ receptor and 300 ng of AOX-3×PPRE-LUC reporter construct per well using Fugen 6 transfection reagent (Roche, Indianapolis, Ind.). […] The control was 0.1% DMSO. After 48 hours, transactivation activity was determined by luciferase assay using Steady Glow reagent (Promega, Madison, Wis.).

[3] = molecular target: T2, Mouse PPARγ (Mus musculus, UniProt P37238); assay: Mouse PPARγ assay (TransAM PPARγ ELISA, 3T3-L1 fibroblasts); type: cell-based; conditions: 72 hrs, Compound 1 50 μM, Rosiglitazone 10 μM
T2 construct: endogenous in cells; host or cells: 3T3-L1 fibroblasts
T2 sequence (P37238 1-505): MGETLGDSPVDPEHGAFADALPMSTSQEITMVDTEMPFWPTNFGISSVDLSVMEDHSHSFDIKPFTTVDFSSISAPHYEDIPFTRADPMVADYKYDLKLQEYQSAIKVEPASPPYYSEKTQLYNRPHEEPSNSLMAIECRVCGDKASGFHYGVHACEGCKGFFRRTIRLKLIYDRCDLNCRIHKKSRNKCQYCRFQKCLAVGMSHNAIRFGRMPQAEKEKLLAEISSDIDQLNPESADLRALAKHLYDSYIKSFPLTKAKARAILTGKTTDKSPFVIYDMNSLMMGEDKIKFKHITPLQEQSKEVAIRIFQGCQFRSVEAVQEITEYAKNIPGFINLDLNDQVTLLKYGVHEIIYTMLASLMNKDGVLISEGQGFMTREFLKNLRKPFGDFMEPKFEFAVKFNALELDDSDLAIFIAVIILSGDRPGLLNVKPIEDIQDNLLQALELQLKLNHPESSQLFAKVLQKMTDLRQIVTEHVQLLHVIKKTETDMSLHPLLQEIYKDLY
Experimental: The assay was designed as in the reference, Blood, 104(5), 1361-8, 2004, the disclosure of which is incorporated by reference for the teaching of the assay.
3T3-L1 fibroblasts were seeded in 6-well plates at a density of 4×10^4 cells/well and cultured in DMEM containing 10% calf serum. […] The plates were incubated for 72 hrs at 37° C. in a CO2 incubator with fresh medium containing test substances added after first 48 hrs. After 72 hrs, the medium was removed; the cell layer was washed and processed for the PPARγ assay as per the instruction of the manufacturer (Active Motif, North America, California, USA). PPARγ activation was determined using 96-well ELISA assay as per the instruction manual (TransAM PPARγ. Active Motif, Cat 0.40196).

[4] = system: genetically diabetic db/db BL/6J mice; assay: Screening in db/db BL/6J mice: reduction of plasma glucose; type: in vivo; conditions: 10 days
Experimental: The protocol was designed as in references. • 1.
The screening of compounds was based on their ability to reduce the plasma glucose levels in genetically diabetic db/db BL/6J mice.
Male db/db mice (obtained from the Animal House of Nicholas Piramal Research Centre, Goregaon, Mumbai, India) were used for this study (body weight in the range of 30-40 g and age is 6-8 weeks) and were kept eight per cage in individually ventilated cages at controlled temperature (22±1° C.) and humidity (45±5%). Food and water were provided ad libitum during their laboratory stay, except for four hours fasting prior to blood sample collection. 12 hours light and dark cycle was followed during the whole study period.
After 4 hours fasting blood samples were collected from mice. Mice showing plasma glucose levels between 300 to 500 mg/dl were divided in groups (8-10 per group) such that the mean plasma glucose levels and variation within the group, for each group, is nearly the same. After grouping, mice in respective groups received treatment with 0.5% CMC vehicle, standard compound or test compounds for 10 days.
After 4 hours fasting, mice were anaesthetized using isoflurane (inhalation anesthetic), and blood samples were collected through the retro orbital plexus. Collected blood samples were centrifuged at 7000 rpm for 10 minutes at 4° C.; Separated plasma was used for estimation of plasma glucose using diagnostic kits (Diasys, Germany). Plasma glucose levels of treated groups were normalized with control group using the following formula, which accounted for the changes in control group.
Formula used for normalization was *: {1−(Ratio of mean plasma glucose levels of control group on day 10 to day 0)/(Ratio of plasma glucose levels of treated group on day 10 to day 0)}×100.

[5] = system: lean C57Bl6/J mice; assay: Evaluation of antiobesity, acute study: food intake in fasted lean mice; type: in vivo; conditions: 100 mg/kg intraperitoneally, 2 hours after food introduction, p<0.001 vs vehicle
Excerpt: The effect of standard (Sibutramine), Compound 1 and Compound 11 on food intake in lean C57Bl6/J mice at 2, 4, 6 and 24 hrs post-food introductions is indicated.
The assay was designed as in reference, PCT publication WO 2003086306, the disclosure of which is incorporated by reference for the teaching of the assay.
Male C57Bl6/J mice, weighing 20-25 g, were housed individually in the animal facility. Water and Chow (Amrut Laboratory Animal feed, Sangli, Maharashtra, India) were available ad libitum. One day before the study, the animals were weighed and separated into treatment groups having similar average body weight. For the experiment, the animals were deprived of food overnight for 16 hours. They were dosed intraperitoneally with test compounds (100 mg/kg) or comparator standard (Sibutramine, 3 mg/kg) in saline vehicle (10 mL/kg). Half an hour after drug administration the animals were presented with a pre-weighed amount of food in the food cup. Food that remained in the cup was measured at various time points. The effect of standard, and test compounds on food intake in fasted lean C57Bl6/J mice at 2, 4, 6 and 24 hrs post-food introductions was evaluated. […] (*** p<0.001 vs vehicle treated controls) (b) Chronic Study

[6] = system: diet induced obese (DIO) C57Bl6/J mice; assay: Evaluation of antiobesity, chronic study: diet induced obese mice; type: in vivo; conditions: 200 mg/kg intraperitoneally, 10 days of treatment
Experimental: Diet induced obese (DIO) mice were treated with either standard (Sibutramine) or Compound 1 for 10 days.
Cumulative body weight gain of diet induced obese (DIO) mice treated with either standard (Sibutramine) or Compound 1 for 10 days is indicated.
The assay was designed as in the reference, British Journal of Pharmacology, 132, 1898-1904, 2001, the disclosure of which is incorporated by reference for the teaching of the assay. Male C57Bl6/J mice (3-4 weeks of age) were housed in groups of 10 animals per cage in the animal facility. High fat diet (D12451 Research Diets Inc., New Brunswick, N.J. 08901, USA), 45% kcal from fat) and water were provided ad libitum for 14 weeks. After this period, the animals were housed individually in cages. The animals were weighed and separated into groups with similar body weight. They were acclimatized to the experimental procedures for 2 days Animals were dosed intraperitoneally with test compound (200 mg/kg) or the standard (Sibutramine, 3 mg/kg) in 10 ml/kg of 0.5% CMC vehicle between 10:00 h-12:00 h. After drug administration the animals were presented with a pre-weighed amount of food in the food cup. Weight of feed remaining in the cup and body weight were recorded daily just prior to dosing. The change in weight and cumulative food intake were computed. The results are indicated in FIG. 2 and FIG. 3. • Conclusions: 1. […]

For `CC(=O)N1CCN(c2ccc(Oc3ncc(NS(=O)(=O)c4ccc(Cl)cc4Cl)cc3Cl)cc2)CC1` [Compound 1, N-(6-(4-(4-Acetylpiperazin-1-yl)phenoxy)-5-chloropyridin-3-yl)-2,4-dichlorobenzene-sulfonamide], the “% of Rosiglitazone (comparison with Rosiglitazone, glucose uptake)” value [1] was 61.4%, the “Fold Vehicle (fold activity over vehicle, glucose uptake)” value (shortened to “Fold Vehicle”) [1] was 2.10 ± 0.05 and the “PPARγ activity (% of rosiglitazone)” value [2] was 6.4 % of rosiglitazone. The “PPARγ activity (% of rosiglitazone)” value [3] was 5.1 % of rosiglitazone, the “Normalization with control (plasma glucose reduction)” value ([4]; 100 mpk bid) was 46.07 ± 4.55 and the “Inhibition of food intake” value [5] was “effective in inhibiting food intake”. The “Cumulative body weight gain” value [6] was “effective in reducing cumulative body weight gain”, the Cumulative food intake [6] was “effective in reducing cumulative food intake” and the melting point was 215 to 216 °C.
In the case of `COc1ccc(OC)c(S(=O)(=O)Nc2cnc(Oc3ccc(N4CCN(C(C)=O)CC4)cc3)c(Cl)c2)c1` [Compound 4, N-(6-(4-(4-Acetylpiperazin-1-yl)phenoxy)-5-chloropyridin-3-yl)-2,5-dimethoxy-benzenesulfonamide], the “% of Rosiglitazone (comparison with Rosiglitazone, glucose uptake)” value [1] is reported as 41.33% and the “Fold Vehicle” value [1] is reported as 1.55 ± 0.03.
For `CC(=O)N1CCN(c2ccc(Oc3ncc(NS(=O)(=O)c4ccc(C(F)(F)F)cc4Cl)cc3Cl)cc2)CC1` [Compound 5, N-(6-(4-(4-Acetylpiperazin-1-yl)phenoxy)-5-chloropyridin-3-yl)-2-chloro-4-(trifluoromethyl)benzenesulfonamide], the “% of Rosiglitazone (comparison with Rosiglitazone, glucose uptake)” value [1] was 63.94% and the “Fold Vehicle” value [1] was 1.85 ± 0.04.
In the case of `CC(=O)N1CCN(c2ccc(Oc3ncc(NS(=O)(=O)c4ccc(Cl)c(Cl)c4)cc3Cl)cc2)CC1` [Compound 6, N-(6-(4-(4-Acetylpiperazin-1-yl)phenoxy)-5-chloropyridin-3-yl)-3,4-dichlorobenzene-sulfonamide], the “% of Rosiglitazone (comparison with Rosiglitazone, glucose uptake)” value [1] is reported as 69.76% and the “Fold Vehicle” value [1] is reported as 1.93 ± 0.06.
In the case of `O=S(=O)(Nc1cnc(Oc2ccc(N3CCNCC3)cc2)c(Cl)c1)c1ccc(Cl)cc1Cl` [Compound 11, 2,4-Dichloro-N-(5-chloro-6-(4-(piperazin-1-yl)phenoxy)pyridin-3-yl)benzene sulfonamide], the “Inhibition of food intake” value [5] is reported as “effective in inhibiting food intake”.
In the case of `CC(=O)N1CCN(c2ccc(Oc3ncc(NC(=O)CCC(=O)O)cc3Cl)cc2)CC1` [Compound 14, 4-(6-(4-(4-Acetylpiperazin-1-yl)phenoxy)-5-chloropyridin-3-ylamino)-4-oxobutanoic acid], the “% of Rosiglitazone (comparison with Rosiglitazone, glucose uptake)” value [1] is reported as 27.5%, the “Fold Vehicle” value [1] is reported as 1.49 ± 0.05 and the “Normalization with control (plasma glucose reduction)” value ([4]; 100 mpk bid) is reported as “Inactive”.
With `O=S(=O)(Nc1cnc(Oc2ccccc2-c2nc3ccccc3s2)c(Cl)c1)c1ccc(Cl)cc1Cl` [Compound 15, N-(6-(2-(Benzo[d]thiazol-2-yl)phenoxy)-5-chloropyridin-3-yl)-2,4-dichlorobenzene-sulfonamide] the “% of Rosiglitazone (comparison with Rosiglitazone, glucose uptake)” value [1] was 36.7% and the “Fold Vehicle” value [1] was 2.0 ± 0.13.
For `CN(CCOc1ccc(CC2SC(=O)NC2=O)cc1)c1ccccn1` (stereo not shown) [Rosiglitazone, reference compound], the “Normalization with control (plasma glucose reduction)” value ([4]; Rosiglitazone 5 mpk bid) was 55.73 ± 4.46 and 53.34 ± 4.11.
